Several values for one entry are separate records, joined by “and”; a condition that tells them apart may be missing. Equal values may be shown once.

The test system of one data set is IMR-90. Nature of the data set: Beta Gal assay, UVB induced senescence. The format is cell-based. An excerpt: Seeding occurred on Day 1, with pretreatment on Day 2, and UVB-induction and retreatment on Day 3, SABG on Day 8, and microscopy (SABG) on Day 9. […] Results for Example 6 can be seen in FIGS. 19A-27D, and Tables 4, 5, and 6 below.
Another data set deals with 5-HT2A receptors (Homo sapiens, UniProt P28223). As to conditions: Rickli et al., 2017; cited from earlier work.
The conditions of data set [1]: cited from earlier work.
The test system of another data set is BDNF. To be noted: only the lower dose, 25 mg daily, 14-day period; cited from earlier work.
In a further data set the test system is NMDAR2B. The data set can be described thus: NMDAR2B protein expression in ARPE-19 cells (immunofluorescence). The data set is classed as cell-based. The protocol: (§1) First, the present inventors assessed the expression of three NMDAR subunits (NMDAR1, NMDAR2A, NMDAR2B) and two 5-HT2 subtypes (5-HT2A, 5-HT2C) by immunofluorescence coupled to confocal microscopy. 7,500 cells/well were plated in a 24-well plate on sterile glass coverslips. The next day, the immunofluorescence analysis was performed. The following primary antibodies were used: anti-NMDAR1A (Abcam, ab68144), NMDAR2A (Bioss, bs-3507R-TR), NMDAR2B (Bioss, bs-0222R-TR), 5-HT2A (Bioss, bs-12049R), 5-HT2C (Bioss, 2959R), and the secondary antibody goat anti-rabbit IgG (GeneTex, GTX213110-04). The images of the immunostained cells were acquired by means of a confocal microscope Zeiss LSM 800, using a 63× magnification and can be seen in FIGS. 9A-9E. ImageJ software was used to quantify the intensity of the fluorescent signal.
(§2) 7,500 cells/well were plated in a 24-well plate on sterile glass coverslips. […] After 6 days an immunofluorescence analysis coupled to confocal microscopy was performed with the primary and secondary antibodies described above.

The test system of the next data set is 5-HT2A. Nature of the data set: 5-HT2A receptor expression in ARPE-19 cells (immunofluorescence). The data set is classed as cell-based. To be noted: acute and chronic psilocin exposure; decreasing tendency. How it is done:
as §1, §2

Another data set has as its system keratocytes. Nature of the data set: Cell viability, MTT test, keratocytes. The format is cell-based, human. The protocol:
(§3) Primary corneal keratocytes were obtained after digestion of human corneas from healthy donors purchased at the Veneto Eye Bank Foundation (Venezia Mestre, Italy). After the corneal epithelium was removed with a cell scraper and the endothelium was enzymatically detached using 0.05% trypsin/0.02% EDTA-solution for 15 minutes at 37° C., the stroma was then cut into 3- to 4-mm pieces and treated overnight at 37° C. with type I collagenase (100 U/ml) and hyaluronidase (2 mg/ml) solutions in Dulbecco's Modified Eagle's Medium (DMEM). Isolated keratocytes were then seeded in monolayer and cultured at 37° C. with 5% CO2 in DMEM containing 10% FBS, 1% penicillin-streptomycin (P/S) and 1% L-glutamine (otherwise known as complete medium). Expanded cells were trypsinized and sub-cultured at a ratio of 1:2. Corneal cells were grown under standard cell culture practices in complete DMEM medium at 37° C., in a 5% CO2 atmosphere. U937 human monocytes were grown in suspension in complete RPMI 1640 medium and passaged twice weekly by dilution using a seeding density of 10^6 cells/ml.
(§4) With this procedure, only viable cells with functioning mitochondria can oxidize MTT to a violet-red reaction product.
(Tetrazolium dyes change colour on reduction, which living cells bring about.)

The subject of another data set is IL-12. Nature of the data set: IL-12 expression in keratocytes exposed to CM of activated U937 (qPCR). The data set is classed as cell-based, human. As to conditions: 0.1 and 1 μM psilocin, 4 and 10 h. How it is done: (§5) Anti-inflammatory and anti-fibrotic effects evaluations. Cytokines expression was analyzed in human keratocytes and HCE cells exposed to the inflammatory conditioned medium (CM) of activated U937 cells.
(§6) U937 human monocytes were differentiated to macrophages by treatment with 50 ng/mL phorbol myristate acetate (PMA) for 48 h followed by the exposure to […] lipopolysaccharide (LPS) for 1 hour. Cells were then washed and cultivated with complete RPMI for 24 hours to produce the inflammatory CM. The CM was collected, filtered and stored at −80° C. The differentiation of monocytes to macrophages was examined under an inverted phase-contrast microscope and the mRNA expression of the macrophage differentiation marker CD68 was analysed by quantitative real time PCR (qPCR). Cells were then washed and cultivated with complete DMEM for 24 hours to produce the CM. The CM was collected, filtered and stored at −80° C.
(§7) At 4 and 10 or at 4, 10 and 24 h cells were detached […] extracted to analyze the expression of pro-inflammatory cytokines (IL-1β, TNF-α, IL-8, IL-12, IFNγ). The expression of type collagen I and VEGF was analysed on mRNA extracted from keratocyte cell cultures. The experiments were performed three times.
In general terms: In qPCR the cycle at which signal appears reflects the starting amount.

For data set [2], the system named is IL-8. Nature of the data set: IL-8 expression in keratocytes exposed to CM of activated U937 (qPCR). The data set is classed as cell-based, human. As to conditions: 0.1 and 1 μM psilocin, 4 and 10 h. How it is done: as §5, §6, §7
The next data set concerns collagen type I. Nature of the data set: Collagen type I expression in keratocytes exposed to CM of activated U937 (qPCR). The format is cell-based, human. To be noted: 0.1 and 1 μM psilocin, 4, 10 and 24 h. The protocol:
as §5, §6, §7

For data set [3] the following is noted: after ingestion of psilocybin mushrooms; cited from earlier work.
For a further data set, the system named is IL-1β. Nature of the data set: IL-1β expression in keratocytes exposed to CM of activated U937 (qPCR). To be noted: 0.1 and 1 μM psilocin, 4 h. The format is cell-based, human. How it is done:
as §5, §6, §7

A further data set deals with TNF-α. Nature of the data set: TNF-α expression in keratocytes exposed to CM of activated U937 (qPCR). As to conditions: 0.1 and 1 μM psilocin. The data set is classed as cell-based, human. How it is done: as §5, §6, §7
The subject of the next data set is NMDAR1. The data set can be described thus: NMDAR1 protein expression in ARPE-19 cells (immunofluorescence). The data set is classed as cell-based. The protocol: as §1, §2
The subject of data set [4] is Human corneal epithelial (HCE) cells. The data set can be described thus: Cell viability, MTT test, HCE cells. The format is cell-based.
From the text: (§8) Cell cultures. Human corneal epithelial (HCE) cells were obtained from the American Type Culture Collection. U937 human monocytes cell line was purchased from Thermo Scientific.
as §4

In a further data set the test system is NMDAR2A. The data set can be described thus: NMDAR2A protein expression in ARPE-19 cells (immunofluorescence). The data set is classed as cell-based. The protocol: as §1, §2
In a further data set the test system is VEGF. Nature of the data set: VEGF expression in keratocytes exposed to CM of activated U937 (qPCR). To be noted: 0.1 and 1 μM psilocin, 4, 10 and 24 h. The data set is classed as cell-based, human. The protocol:
as §5, §6, §7

Another data set has as its system 5-HT2C. The data set can be described thus: 5-HT2C receptor expression in ARPE-19 cells (immunofluorescence). The data set is classed as cell-based. As to conditions: chronic treatment with psilocin. How it is done: as §1, §2
The test system of another data set is corneal cells. The data set can be described thus: Psilocin cytotoxicity in corneal cells. The format is cell-based, human. As to conditions: 0.001 to 10 μM, assessed 3 days after treatment. How it is done: as §8, §3, §4
Data set [5] relates to IL-8. Nature of the data set: IL-8 expression in HCE cells exposed to CM of activated U937 (qPCR). As to conditions: 0.1 and 1 μM psilocin, 10 h. The format is cell-based, human. How it is done: as §5, §6, §7
[6] abbreviates: 0.05 μM, alternating medium with/without psilocin every 24 hours (96 hours).
Where [7] appears, read: 3 and 6 days after treatment, 0.01, 0.1 and 1 μM.

Chain of 5-HT2A receptors (P28223 whole entry): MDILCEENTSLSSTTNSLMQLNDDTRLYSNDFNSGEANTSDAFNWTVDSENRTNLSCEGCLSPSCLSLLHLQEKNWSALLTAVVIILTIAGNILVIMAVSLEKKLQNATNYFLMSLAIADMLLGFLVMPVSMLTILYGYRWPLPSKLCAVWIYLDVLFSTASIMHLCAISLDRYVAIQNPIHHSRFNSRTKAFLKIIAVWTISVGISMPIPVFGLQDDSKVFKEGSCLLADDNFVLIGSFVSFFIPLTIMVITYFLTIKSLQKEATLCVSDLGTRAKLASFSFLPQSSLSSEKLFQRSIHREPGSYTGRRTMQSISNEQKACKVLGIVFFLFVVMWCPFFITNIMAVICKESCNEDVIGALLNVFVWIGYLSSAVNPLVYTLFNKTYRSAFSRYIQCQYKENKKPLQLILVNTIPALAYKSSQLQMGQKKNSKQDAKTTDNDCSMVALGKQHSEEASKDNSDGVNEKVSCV

Turning to `CCC(=O)C(C[C@H](C)N(C)C)(c1ccccc1)c1ccccc1` [D methadone, dextromethadone], the “Avg % Beta Gal+ cells” value in the data set with IMR-90 (D methadone 10 nM) is recorded as 79.01%; in the data set with IMR-90 (D methadone 500 nM), 83.34%. For the same compound, the figures for the “Total % Beta Gal+ cells” value in the data set on IMR-90 (D methadone 10 nM) and with IMR-90 (D methadone 500 nM) were 81.29% and 83.94%, respectively. The “% Beta Gal+ cells, single well/duplicate” value with IMR-90 (D methadone 10 nM, UVB without treatment Avg 85.63514) was 71.875% and 85.71% and 77.19% and 81.25%; in the data set on IMR-90 (D methadone 500 nM) it was 82.86% and 82.35% and 76.47% and 91.67%. In addition, on 5-HT2A receptors, the “Affinity of 5-HT-2A receptors” value is reported as “nanomolar range”. In addition, the Nootropic signal entry in [1] (only the lowest tested dose of 5 mg) is listed as “elicited a nootropic signal”. In [1] (single ascending dose 5-200 mg, nausea and vomiting), the MTD was 150 mg. Moreover, the “Plasma BDNF” value in the data set with BDNF is given as “statistically significant increase in plasma BDNF”.

As for `CN(C)CCc1c[nH]c2cccc(O)c12` [psilocin], the NMDAR2B expression result in the data set on NMDAR2B (setting [6]) was “decrease of NMDAR2B expression”. The “NMDAR2B subunit protein expression” value with NMDAR2B (psilocin 0.05 μM for 6-days) and with NMDAR2B (psilocin 10 μM for 24 hours) was “did not change” in each case. Moreover, in the data set on 5-HT2A, the “Expression of 5-HT2A receptor” value is recorded as “virtually no effect”. Also, the “% Beta Gal+ cells, single well/duplicate” value with IMR-90 (Psilocin 5 nM) was 86.67% and 75% and 85.71% and 81.82%. In addition, the “Avg % Beta Gal+ cells” value in the data set with IMR-90 (Psilocin 5 nM) was 82.3%. In the data set on IMR-90 (Psilocin 5 nM), the “Total % Beta Gal+ cells” value stood at 64.45%. Also, the Antisenescence effects entry with IMR-90 (higher doses of psilocin (up 24 microM, experiment not shown)) is “no antisenescence effects”; in the data set with IMR-90 (psilocin lower doses (5 nM)) it was “no antisenescence effects”. The Corneal cell viability result (in the data set with keratocytes (setting [7]); in [4] (setting [7])) was “significant increase in corneal cell viability” in each case. In addition, the “Cell viability (MTT)” value is recorded as “significant increased viability” with keratocytes (keratocytes, 0.1 to 1 μM psilocin, up to 6 days) and “significant increased viability” in data set [4] (HCE cells, 0.1 to 1 μM psilocin, up to 6 days). The “IL-12 mRNA expression” value in the data set on IL-12 is recorded as “significant decrease”. For the same compound, in the data set on IL-8 [2], the “IL-8 mRNA expression” value was “significant decrease”. Also, the “Collagen type I gene expression” value with collagen type I is reported as “did not change significantly”. For the same compound, in data set [3], the Psilocin in bile was 3102 ng/mL. Also, the “Psilocin in cardiac blood” value in [3] is recorded as 67 ng/mL. Further, the “Psilocin in peripheral blood” value in [3] was 60 ng/mL. Also, the Psilocin in urine in data set [3] is recorded as 2230 ng/mL. Further, in [3], the “Psilocin in vitreous humor” value is 57 ng/mL. In addition, the “IL-1β mRNA expression” value in the data set with IL-1β is given as “significant decrease”. Moreover, the “TNF-α mRNA expression” value with TNF-α is “very low and comparable to that of cells treated only with CM”. In addition, the values for the NMDAR1 expression entry with NMDAR1 (setting [6]) and in the data set on NMDAR1 (alternate incubation or psilocin-containing medium replaced every day (FIGS. 11G-11I context)) were “increase of NMDAR1 expression” and “increased significantly”, respectively. Further, the “NMDAR1 subunit protein expression” value in the data set on NMDAR1 (psilocin 0.05 μM for 6-days) is listed as “dramatic increase”; in the data set on NMDAR1 (psilocin 10 μM for 24 hours) it was “slight, not significant increase”. Also, the “NMDAR2A subunit protein expression” value is on record as “dramatic increase” in the data set on NMDAR2A (psilocin 0.05 μM for 6-days) and “slight, not significant increase” in the data set on NMDAR2A (psilocin 10 μM for 24 hours). Further, in the data set with VEGF, the “VEGF I gene expression” value is listed as “did not change significantly”. In the data set on 5-HT2C, the “Expression of 5-HT2C” value is “increased after chronic treatment”. Further, in the data set with corneal cells, the “Cytotoxic effect in vitro” value was “does not have a cytotoxic effect”. Besides, the IL-8 gene expression result in the data set on IL-8 [5] is given as “significant down-regulation”.

These data come from patent US12616706B2, “Compositions and methods of use comprising substances with neural plasticity actions administered at non-psychedelic/psychotomimetic dosages and formulations” (Arbormentis LLC, priority 2019, dated 2026).
